The values below come from ChEMBL document CHEMBL4184137, “Lysine Deacetylase Inhibitors in Parasites: Past, Present, and Future Perspectives” (J Med Chem, 2017).

The structures appear in SMILES notation.

In series [1] the target is T1, Histone deacetylase (Plasmodium falciparum) (UniProt Q9XYC7).
T1 sequence (whole entry): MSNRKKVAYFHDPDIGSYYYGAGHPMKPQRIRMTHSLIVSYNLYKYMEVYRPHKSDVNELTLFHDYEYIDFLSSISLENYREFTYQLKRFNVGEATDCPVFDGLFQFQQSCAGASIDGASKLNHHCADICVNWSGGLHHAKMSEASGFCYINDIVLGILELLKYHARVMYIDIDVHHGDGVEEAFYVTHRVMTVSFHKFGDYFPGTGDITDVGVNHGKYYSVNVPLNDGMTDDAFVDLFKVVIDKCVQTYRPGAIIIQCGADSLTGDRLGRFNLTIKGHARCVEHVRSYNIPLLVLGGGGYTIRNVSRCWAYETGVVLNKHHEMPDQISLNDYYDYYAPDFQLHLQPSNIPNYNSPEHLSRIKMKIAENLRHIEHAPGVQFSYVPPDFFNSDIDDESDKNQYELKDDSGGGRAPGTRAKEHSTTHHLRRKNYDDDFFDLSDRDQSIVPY
Nature of the series: Inhibition of recombinant HDAC1 in recombinant Plasmodium falciparum at 1 uM using Ac-RGK(Ac)-AMC fluorogenic peptide as substrate preincubated for 1 hr followed by substrate addition measured after 10 min by fluorescence assay.

The subject of series [2] is Plasmodium falciparum. The experiment in a line: Antimalarial activity against Plasmodium falciparum infected in human erythrocytes preincubated for 48 hrs followed by [3H]-hypoxanthine addition measured after 24 hrs by scintillation counting assay. Format: functional, organism-based.
Series [3] concerns Trypanosoma brucei brucei. The experiment in a line: Antitrypanosomal activity against Trypanosoma brucei brucei measured after 22 hrs by fluorescence-based Alamar blue viability assay. In kind it is functional, organism-based. Background: Resazurin is reduced to fluorescent resorufin, in cell work by metabolically active cells.
For another series, the system named is NFF. Nature of the series: Cytotoxicity against human NFF cells after 72 hrs by SRB assay. In kind it is cell-based. In general terms: Sulforhodamine B stains cellular protein and so reports cell mass.
For the next series, the system named is HEK293. The experiment in a line: Cytotoxicity against HEK293 cells after 48 hrs by resazurin assay. Format: cell-based. The following applies: Homo sapiens, HEK293, 48 h.
The subject of series [4] is Plasmodium falciparum. The experiment in a line: Antimalarial activity against Plasmodium falciparum infected in type O-positive erythrocytes by [3H]-hypoxanthine incorporation assay. In kind it is functional, organism-based.
The test system of series [5] is Plasmodium falciparum. Nature of the series: Gametocytocidal activity against transgenic GFP-fused Plasmodium falciparum NF54 […] gametocytes after 24 hrs by MitoTracker Red CM-H2XRos late-stage gametocyte imaging-based viability assay. Format: functional, organism-based. Particulars: NF54, 24 h.
Series [6] can be described thus: Selectivity index, ratio of IC50 for human NFF cells to IC50 for Plasmodium falciparum. Format: toxicity. The following applies: read-out: Ratio IC50.
Series [7] can be described thus: Selectivity index, ratio of IC50 for human NFF cells to IC50 for transgenic GFP-fused Plasmodium falciparum NF54 […] gametocyte. In kind it is toxicity. Particulars: read-out: Ratio IC50.
In series [8] the target is T2, Putative silent information regulator 2 (Leishmania infantum, UniProt A0A6L0XH39).
T2 sequence (A0A6L0XH39 whole entry): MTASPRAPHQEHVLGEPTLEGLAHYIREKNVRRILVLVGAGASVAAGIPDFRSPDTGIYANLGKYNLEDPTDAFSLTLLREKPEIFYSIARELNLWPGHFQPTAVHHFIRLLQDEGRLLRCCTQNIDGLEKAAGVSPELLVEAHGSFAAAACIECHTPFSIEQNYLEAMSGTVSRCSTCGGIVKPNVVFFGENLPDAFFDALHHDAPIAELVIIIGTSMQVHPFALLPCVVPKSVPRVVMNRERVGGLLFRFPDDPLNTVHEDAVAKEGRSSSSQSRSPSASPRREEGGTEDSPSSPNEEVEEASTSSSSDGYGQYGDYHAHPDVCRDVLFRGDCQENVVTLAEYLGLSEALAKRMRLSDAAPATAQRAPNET
The experiment in a line: Inhibition of N-terminal His6-tagged recombinant Leishmania infantum SIR2RP1 expressed in Escherichia coli in presence of NAD+ by fluorimetric method.

Series [9] concerns Leishmania infantum. Nature of the series: Antileishmanial activity against amastigote stage of Leishmania infantum infected in PMA-differentiated human THP-1 cells after 3 days by luciferase assay. In kind it is functional, organism-based. Particulars: THP-1, 72 h.
In the next series the test system is Toxoplasma gondii. Nature of the series: Antiparasitic activity against tachyzoite stage of Toxoplasma gondii. In kind it is functional, organism-based.
Series [10] concerns Plasmodium falciparum. The experiment in a line: Antimalarial activity against Plasmodium falciparum. In kind it is functional, organism-based.
Series [11] can be described thus: Inhibition of Plasmodium falciparum Sir2A.
Series [12] relates to Plasmodium falciparum. Nature of the series: Antiplasmodial activity against Plasmodium falciparum 3D7 assessed as growth inhibition after 24 hrs by measuring incorporation of [3H]-hypoxanthine by liquid scintillation counting method. Format: functional, organism-based.
The test system of the next series is Trypanosoma cruzi. The experiment in a line: Antitrypanosomal activity against epimastigotes of Trypanosoma cruzi […] by Alamar Blue assay. Format: functional, organism-based.
The subject of series [13] is Leishmania infantum. The experiment in a line: Antileishmanial activity against amastigote stage of Leishmania infantum MHOM/MA671TMAP263 expressing luciferase after 72 hrs by luciferase assay. In kind it is functional, organism-based. Particulars: MHOM/MA671TMAP263, 72 h.
Series [14] has as its system Trypanosoma brucei. The experiment in a line: Inhibition of recombinant Trypanosoma brucei HDAC1 at 5 uM after 30 mins.
The test system of series [15] is Trypanosoma brucei. The experiment in a line: Inhibition of recombinant Trypanosoma brucei HDAC3 at 5 uM after 30 mins.
Series [16] deals with Schistosoma mansoni. Nature of the series: Antiparasitic activity against Schistosoma mansoni assessed as cumulative egg reduction at 20 uM. In kind it is functional. The arrangement: scale not given: the % may be the effect or the level left.
Series [17] relates to Schistosoma mansoni. Nature of the series: Antiparasitic activity against Schistosoma mansoni assessed cell viability at 20 uM after 5 days. Format: functional.
Series [18] relates to Schistosoma mansoni. The experiment in a line: Antiparasitic activity against Schistosoma mansoni assessed as pairing at 20 uM after 6 days relative to control. In kind it is functional.
The test system of series [19] is Plasmodium falciparum. Nature of the series: Antimalarial activity against Plasmodium falciparum using Malstat reagent by parasite lactate dehydrogenase assay. In kind it is functional, organism-based.
Another series addresses T3, Histone deacetylase (Plasmodium falciparum, UniProt Q9XYC7).
T3 sequence (Q9XYC7 whole entry): T1 sequence (whole entry)
Nature of the series: Inhibition of recombinant Plasmodium falciparum HDAC1 using HDAC substrate-3 after 30 mins by fluorescence assay.

The nature of series [20]: Selectivity index, ratio of IC50 for African green monkey Vero cells to IC50 for Plasmodium falciparum D6. In kind it is toxicity. The following applies: read-out: Ratio IC50.
The nature of series [21]: Selectivity index, ratio of IC50 for African green monkey Vero cells to IC50 for Plasmodium falciparum W2. Particulars: read-out: Ratio IC50. Format: toxicity.

With `O=C(/C=C/c1cccc(S(=O)(=O)Nc2ccccc2)c1)NO` [BELINOSTAT], in series [1], the inhibition (in general, the percentage by which the read-out fell short of the control) was determined as 78.5%. For the same compound, the IC50 (in general, the concentration that gives 50% inhibition) in the series on Plasmodium falciparum [2] is 0.06 to 0.13 µM; in series [3], 2.6 µM; with NFF, 1.4 to 2.4 µM; in the series on HEK293, 1.4 to 2.4 µM.

Take `O=C(CCCCCONC(=O)Nc1cccc2ccccc12)NO`: the IC50 in the series on Plasmodium falciparum [4] was 0.25 to 0.32 µM; in the series on Plasmodium falciparum [5] it was 2.12 to 2.25 µM; in the series on NFF it was 19.5 µM. The selectivity ratio in series [6] was 36 to 78; in [7], 9.

For `O=C1c2cccc3cccc(c23)C(=O)N1CCNCCCCCCCCCCNCCN1C(=O)c2cccc3cccc(c23)C1=O`, the results for the half-inhibitory concentration (IC50) (in series [8]; in the series with Leishmania infantum [9]) were 5.7 to 54.7 µM and 1 to 10 µM, respectively.

For `Cc1[nH]c2ccccc2c1CCNCc1ccc(/C=C/C(=O)NO)cc1` [PANOBINOSTAT], in [1], the inhibition worked out at 100%. In addition, the half-inhibitory concentration (IC50) is 0.01 to 0.03 µM in the series on Plasmodium falciparum [2], 1.69 µM in series [3], 0.07 to 0.18 µM in the series with NFF and 0.07 to 0.18 µM in the series with HEK293.

Consider `O=C(CCCCCCC(=O)NO)NO` [SUBEROHYDROXAMIC ACID], for which the IC50 is 0.8 to 2.3 µM with Plasmodium falciparum [2] and 0.213 µM in the series with Toxoplasma gondii.

`CCCC(CCC)C(=O)O` [VALPROIC ACID]: the IC50 in the series on Plasmodium falciparum [10] is above 100 µM.

Turning to `O=C1c2cccc3cccc(c23)C(=O)N1CCNCCCCCCNCCN1C(=O)c2cccc3cccc(c23)C1=O`, the half-inhibitory concentration (IC50) was 5.7 to 54.7 µM in series [8] and 1 to 10 µM in the series with Leishmania infantum [9].

For `O=C1c2cccc3cccc(c23)C(=O)N1CCNCCCCCCCCNCCN1C(=O)c2cccc3cccc(c23)C1=O`, the IC50 fell in the range of 5.7 to 54.7 µM in [8] and 1 to 10 µM in the series with Leishmania infantum [9].

As for `O=C1c2cccc3cccc(c23)C(=O)N1CCNCCCNCCCNCCN1C(=O)c2cccc3cccc(c23)C1=O`, the results for the IC50 (in series [8]; in the series with Leishmania infantum [9]) were 5.7 to 54.7 µM and 1 to 10 µM, respectively.

For `NC(=O)c1cccnc1` [NIACINAMIDE], the IC50 in [11] is 51 µM; in the series with Plasmodium falciparum [12] it was 9900 µM; in series [8] it was 40 µM; in the series on Leishmania infantum [13], 5500 to 13900 µM. In addition, the EC50 (as a rule, the concentration that produces a half-maximal response) in the series on Trypanosoma cruzi came out at 25800 µM.

In turn, `O=C(/C=C/c1ccc(C(=O)NO)cc1)NO` came in with an IC50 with Plasmodium falciparum [2] of 0.9 to 1.1 µM.

For `CC(/C=C/C(=O)NO)=C\[C@@H](C)C(=O)c1ccc(N(C)C)cc1` [TRICHOSTATIN], the IC50 in series [3] was 7 µM; with Toxoplasma gondii, 0.041 µM. Besides, the inhibition in the series with Trypanosoma brucei [14] and with Trypanosoma brucei [15] was above 50% each time.

In the series with Plasmodium falciparum [10], `Oc1ccc(/C=C/c2cc(O)cc(O)c2)cc1` [RESVERATROL] yielded an IC50 of 60 µM.

For `O=C1c2cccc3cccc(c23)C(=O)N1CCNCCCNCCCCNCCCNCCN1C(=O)c2cccc3cccc(c23)C1=O`, the IC50 in series [8] was in the range of 5.7 to 54.7 µM; with Leishmania infantum [9] it was 1 to 10 µM.

As for `O=C1CCc2c(ccc3ccccc23)O1` [SPLITOMICIN], the IC50 was above 400 µM in [11] and above 10 µM with Plasmodium falciparum [12].

In the case of `O=C1c2cccc3cccc(c23)C(=O)N1CCNCCCCCCCCCNCCN1C(=O)c2cccc3cccc(c23)C1=O`, the IC50 in [8] was in the range of 5.7 to 54.7 µM; with Leishmania infantum [9], 1 to 10 µM.

For `O=C1c2cccc3cccc(c23)C(=O)N1CCNCCNCCNCCN1C(=O)c2cccc3cccc(c23)C1=O`, the IC50 in [8] lay within 5.7 to 54.7 µM; in the series with Leishmania infantum [9], 1 to 10 µM.

In the case of `O=C1c2cccc3cccc(c23)C(=O)N1CCNCCCCNCCN1C(=O)c2cccc3cccc(c23)C1=O`, the IC50 in [8] was 5.7 to 54.7 µM; in the series on Leishmania infantum [9], 1 to 10 µM.

For `O=C1c2cccc3cccc(c23)C(=O)N1CCNCCCCCCCCCCCCNCCN1C(=O)c2cccc3cccc(c23)C1=O`, the 50% inhibitory concentration (IC50) in series [8] fell in the range of 5.7 to 54.7 µM; in the series with Leishmania infantum [9], 1 to 10 µM.

Regarding `O=C1c2cccc3cccc(c23)C(=O)N1CCNCCCCCNCCN1C(=O)c2cccc3cccc(c23)C1=O`, the concentration for half-maximal inhibition (IC50) in [8] lay in the range of 5.7 to 54.7 µM; in the series with Leishmania infantum [9] it was 1 to 10 µM.

For the compound `O=C1NC(=S)NC(=O)C1=Cc1cc2ccccc2[nH]1`, the Activity with Schistosoma mansoni [16] worked out at 65%; with Schistosoma mansoni [17], 100%; in the series with Schistosoma mansoni [18] it was 100%.

With `O=C1c2cccc3cccc(c23)C(=O)N1CCNCCCCNCCCNCCN1C(=O)c2cccc3cccc(c23)C1=O`, the IC50 in series [8] lay in the range of 5.7 to 54.7 µM; with Leishmania infantum [9], 1 to 10 µM.

With `CC[C@H]1OC(=O)[C@H](C)[C@@H](O[C@H]2C[C@@](C)(OC)[C@@H](O)[C@H](C)O2)[C@H](C)[C@@H](O[C@@H]2O[C@H](C)C[C@H](N(C)Cc3ccc(-c4cn(CCCCCCC(=O)NO)nn4)cc3)[C@H]2O)[C@](C)(O)C[C@@H](C)CN(C)[C@H](C)[C@@H](O)[C@]1(C)O`, the IC50 is 0.094 to 0.226 µM with Plasmodium falciparum [19] and 0.029 µM at Histone deacetylase. Besides, the selectivity ratio in [20] is above 20.7; in [21], above 47.6.

As to `O=C1c2cccc3cccc(c23)C(=O)N1CCNCCCCCCCNCCN1C(=O)c2cccc3cccc(c23)C1=O`, the IC50 in series [8] lay within 5.7 to 54.7 µM; in the series with Leishmania infantum [9], 1 to 10 µM.

In the case of `Cc1ccc(C(=O)Nc2ccc(S(=O)(=O)O)c3cc(S(=O)(=O)O)cc(S(=O)(=O)O)c23)cc1NC(=O)c1cccc(NC(=O)Nc2cccc(C(=O)Nc3cc(C(=O)Nc4ccc(S(=O)(=O)O)c5cc(S(=O)(=O)O)cc(S(=O)(=O)O)c45)ccc3C)c2)c1` [SURAMIN], the IC50 in series [8] came to 7 µM.

The compound `O=C(CCCCCN1C(=O)c2cccc3cccc(c23)C1=O)NO` displayed an IC50 in the series on Toxoplasma gondii of 0.039 µM.
